# Test results reported in patent US4910225A, “Locally administrable therapeutic composition for inflammatory disease” (Senju Pharmaceutical Co., Ltd., priority 1988, dated 1990).
# Assays:
# [1] = tested on: experimental ophthalmitis induced by bovine serum albumin in white rabbits (ophthalmitis I); assay: Ophthalmitis I: protein, white blood cell count and prostaglandins in anterior chamber aqueous humor; format: in vivo; details: for Prostaglandin in anterior chamber aqueous humor: less than the assay limit; for Protein in anterior chamber aqueous humor / White Blood Cell count in anterior chamber aqueous humor: mean ± SE
# Description: Seventeen male white rabbits weighing about 2 kg were used. They were fed with 80 g of Labo RG-RO (Nippon Agricultural Co., Ltd.) daily and had free access to tap water.
# After 28 days when ophthalmitis I had nearly recovered, 2.5% BSA solution was administered in a dose of 25 mg/ml/kg into the auricular vein to cause ophthalmitis (ophthalmitis II). The severity of ophthalmitis was rated according to the rating scale^(1) of Yamauchi et al., based on the Draize method in which an increased weight given to the internal segment of the eye. Observation was made with a frequency of once in one or two days during the peak period of inflammation and once in three or four days before and after the peak period for ophthalmitis I and 3, 6, 12 and 24 hours after intravenous injection of BSA for ophthalmitis II.
# Gross observation was made on the day after injection of BSA into the vitreous body and with the animals arranged in the decreasing order of severity of ocular inflammation, grouping was carried out in such a manner that the intensity distribution would be uniform over the groups. Thus, a physiological saline group of 7 animals, a 0.1% Compound [I] instillation group of 4 animals and a 0.5% Compound [I] instillation group of 5 animals were provided. After this grouping procedure, the test drugs and saline were respectively instilled into both eyes of the rabbits, 50 μl per dose, 4 times a day. For induction of ophthalmitis II, each drug was instilled into both eyes, 50 μl per dose, immediately after injection of BSA into the auricular vein and at 1-hour intervals thereafter, for a total of 14 times.
# [2] = tested on: carrageenin edema in rats; assay: Carrageenin edema of the conjunctiva in rats; format: in vivo; details: 4 hours after carrageenin; for Weight of Edema: mean ± SE for 10 eyes
# Description: 1. Sodium 3-(4-bromobenzoyl)-2-aminophenyl-acetate (hereinafter referred to as Compound [I])
# 2. Sodium 3-(4-chlorobenzoyl)-2-aminophenyl-acetate (hereinafter referred to as Compound [II])
# 3. Sodium 3-benzoyl-2-aminophenylacetate (hereinafter referred to as Compound [III])
# Using female Wister rates weighing 100 g in groups of 5 animals or 10 eyes, 0.05 ml of 1% carrageenin (dissolved in physiological saline at 50° C.) as a phlogogen was injected beneath the conjuctiva of both eyes to induce edema. Physiological saline, as a control, and test drugs were respectively instilled into both eyes 40 and 20 minutes before and immediately after the injection of carrageenin, in the amount of 2.5 μl per dose. Four hours after the phlogogen treatment, each animal was sacrificed by cervical dislocation and in accordance with the method of Maistrello et al.^(2), the scalp was peeled off toward the eyelid and the edematous portion together with the skin was removed along the lid margin and weighed.
# ^(2) Maistrello et al.: Quantitative Effect of Topically Applied Anti-inflammatory Agents on External Ocular Inflammation in Rats: Journal of Pharmaceutical Science, volume 62, pp. 1455-60(1973).
# [3] = tested on: protein increase after paracentesis; assay: Protein increase in aqueous humor after paracentesis; format: in vivo, albino rabbits
# Description: The solutions of the following formulas were used.
# Totally 28 male albino rabbits (4 rabbits×7 groups) with a body weight of about 2 kg werr used. They had been confirmed, before the experiment, to have mydriatic response to 1% atropine for at least 4 hours.
# 50 μl each of 1% atropine solution was instilled into both eyes of the animals one hour before the 1st paracenthesis, in which approx. 0.2 ml/eye of aqueous humor (primary aqueous humor) was collected. Topical application of 50 μl each of the test drug solutions was conducted 30 min before the paracenthesis. Pupil diameter of each eye was measured with a slide caliper immediately before and 10 min after the paracenthesis. The 2nd paracenthesis was conducted 90 min after the 1st one, in which approx. 0.2 ml/eye of aqueous humor (secondary aqueous humor) was collected.
# [4] = pH and osmolarity of ophthalmic solutions; format: physicochemical
smiles,measurement,setting,value
"Nc1c(CC(=O)[O-])cccc1C(=O)c1ccc(Br)cc1.O.[Na+] [Compound [I], Sodium 3-(4-bromobenzoyl)-2-aminophenylacetate monohydrate]",Inhibition of prostaglandins in the aqueous humor,[1]; 0.1% and 0.5%,substantially complete inhibition of prostaglandins in the aqueous humor
same,Prostaglandin in anterior chamber aqueous humor,[1]; 0.1%,< 0.4 ng/mL
same,Protein in anterior chamber aqueous humor,[1]; 0.1%,48.7 ± 3.8 mg/Mml
same,White Blood Cell count in anterior chamber aqueous humor,[1]; 0.1%,5593 ± 3436 Cells/mm^3
same,Prostaglandin in anterior chamber aqueous humor,[1]; 0.5%,< 0.4 ng/mL
same,Protein in anterior chamber aqueous humor,[1]; 0.5%,28.4 ± 1.6 mg/Mml
same,White Blood Cell count in anterior chamber aqueous humor,[1]; 0.5%,1980 ± 654 Cells/mm^3
same,Degree of inhibition (carrageenin edema),[2]; 1.0%,16.9%
same,Weight of Edema,[2]; 1.0%,43.93 ± 4.138 mg
same,Degree of inhibition (carrageenin edema),[2]; 2.5%,31.3%
same,Weight of Edema,[2]; 2.5%,36.323 ± 3.308 mg
same,Effect on protein increase compared with 0.5% indomethacin,[3]; 0.01% of Compound [I],equivalent to that of 0.5% indomethacin
same,Inhibition (protein increase),[3]; content 0.0001%,6.3%
same,Inhibition (protein increase),[3]; content 0.001%,26.3%
same,Inhibition (protein increase),[3]; content 0.01%,62.9%
same,Inhibition (protein increase),[3]; content 0.1%,87.8%
same,Anti-inflammatory effect compared with indomethacin,[3]; miosis and protein increase after paracentesis,stronger anti-inflammatory effect than indomethacin
same,Inhibitory activity on protein increase after paracentesis,"[3]; rabbit, in vivo",strong and dose-related inhibitory activity on protein increase after paracenthesis
same,Osmolarity of ophthalmic solution,[4]; 0.1% ophthalmic solution,325 mOsm/kg·H2 O
same,pH value of ophthalmic solutions,[4]; 0.5% and 0.1% ophthalmic solutions,8.11
same,Osmolarity of ophthalmic solution,[4]; 0.5% ophthalmic solution,310 mOsm/kg·H2 O
same,Osmotic pressure,"[4]; Experimental Example 3 solutions 0.1-0.0001%, pH 8.0",310 mOsm/Kg.H2 O
